In patent publication US8952024B2, “Herbicidal pyrimidone derivatives” (E I du Pont de Nemours and Company, priority 2009, dated 2015):

Legend:
Format in all cases: in vivo
[1] = test system: rice (Oryza sativa); experiment: Test B flooded paddy test; conditions: for Plant response rating, Rice: Flood (flooded paddy test), 13 to 15 days
In short: (§1)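 2-leaf seedlings; pots flooded 3 cm over soil at treatment; cpd dosed into floodwater, depth kept constant. Greenhouse 13–15 d. Visual rating vs untreated controls, 0 = no effect, 100 = complete control.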

[2] = test system: ducksalad (Heteranthera limosa); experiment: Test B flooded paddy test; conditions: for Plant response rating, Ducksalad: Flood (flooded paddy test), 13 to 15 days
In short: as §1

[3] = test system: barnyardgrass (Echinochloa crus-galli); experiment: Test B flooded paddy test; conditions: for Plant response rating, Barnyardgrass: Flood (flooded paddy test), 13 to 15 days
In short: as §1

[4] = test system: umbrella sedge (Cyperus difformis); experiment: Test B flooded paddy test; conditions: for Plant response rating, Sedge, Umbrella: Flood (flooded paddy test), 13 to 15 days
In short: as §1

[5] = test system: morningglory (Ipomoea spp.); experiment: Test A pre-/postemergence plant response
In short: (§2)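 Injury was scored visually after roughly ten days against untreated controls, 0 = no effect, 100 = complete control. Test chemicals in a surfactant-containing non-phytotoxic solvent were sprayed either onto soil preemergence or onto one- to two-leaf, 2–10 cm plants postemergence.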

[6] = test system: pigweed (Amaranthus retroflexus); experiment: Test A pre-/postemergence plant response
In short: as §2

[7] = test system: woolly cupgrass (Eriochloa villosa); experiment: Test B pre-/postemergence plant response
In short: (§3)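 Steps: sow seed in loam–sand soil and spray preemergence, or grow plants in peat-based medium to 1–4 leaves (2–18 cm) and spray postemergence; formulation is non-phytotoxic solvent plus surfactant; hold in greenhouse 13–15 days; score visually vs controls, 0 = no effect, 100 = complete control.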

[8] = test system: morningglory (Ipomoea coccinea); experiment: Test B pre-/postemergence plant response
In short: as §3

[9] = test system: johnsongrass (Sorghum halepense); experiment: Test B pre-/postemergence plant response
In short: as §3

[10] = test system: wheat (Triticum aestivum); experiment: Test B pre-/postemergence plant response
In short: as §3

[11] = test system: goosegrass (Eleusine indica); experiment: Test B pre-/postemergence plant response
In short: as §3

[12] = test system: giant foxtail (Setaria faberii); experiment: Test B pre-/postemergence plant response
In short: as §3

[13] = 250 g ai/ha, flooded paddy test, visual rating on 0 to 100 scale (0 no effect, 100 complete control) after 13 to 15 days
[14] = 31 g ai/ha, scale of 0 to 100 where 0 is no effect and 100 is complete control
[15] = 62 g ai/ha, scale of 0 to 100 where 0 is no effect and 100 is complete control
[16] = 125 g ai/ha, scale 0 to 100, 0 is no effect, 100 is complete control
[17] = Postemergence, 125 g ai/ha, visual injury, 0 to 100 scale (0 no effect, 100 complete control), approx. ten days
[18] = Postemergence, 500 g ai/ha, 0 to 100 scale, 0 = no effect, 100 = complete control, approx. ten days
[19] = Preemergence, 125 g ai/ha, 0 to 100 scale, 0 = no effect, 100 = complete control
[20] = Preemergence, 500 g ai/ha, visual injury, 0 to 100 scale (0 no effect, 100 complete control), approx. ten days
[21] = 31 g ai/ha, postemergence, scale 0 to 100, 0 is no effect, 100 is complete control
[22] = 250 g ai/ha, Preemergence, 0 to 100 scale
[23] = Postemergence, 62 g ai/ha, scale 0 (no effect) to 100 (complete control), 13 to 15 days
[24] = Postemergence, 125 g ai/ha, visual rating after 13 to 15 days, scale 0 (no effect) to 100 (complete control)
[25] = Postemergence, 250 g ai/ha, scale 0 to 100 (0 no effect, 100 complete control)
[26] = Preemergence, 31 g ai/ha, scale 0 to 100 (0 no effect, 100 complete control)
[27] = Preemergence, 62 g ai/ha, scale 0 to 100, 0 no effect, 100 complete control
[28] = Preemergence, 125 g ai/ha, 0 to 100 scale

CCCn1c(-c2ccccc2)ncc(C(=O)C2=C(O)CCCC2=O)c1=O [Compound 50]
15: Plant response rating, Rice [1, 16] | Cupgrass, Woolly plant response rating [7, 28] | Plant response rating, Wheat [10, 25]
60: Plant response rating, Flood, Barnyardgrass [3, 13]
45: Plant response rating, Foxtail, Giant [12, 26]
5: Plant response rating, Cupgrass, Woolly [7, 27] | Plant response rating, Wheat [10, 23] | Plant response rating, Wheat [10, 24]
25: Plant response rating, Morningglory [8, 23]
95: Plant response rating, Flood, Sedge, Umbrella [4, 13] | Plant response rating, Johnsongrass [9, 22] | Plant response rating, Goosegrass [11, 26] | Plant response rating, Foxtail, Giant [12, 24] | Plant response rating, Foxtail, Giant [12, 25]
70: Plant response rating, Ducksalad [2, 14] | Plant response rating, Cupgrass, Woolly [7, 21] | Plant response rating, Cupgrass, Woolly [7, 22] | Plant response rating, Morningglory [8, 24] | Plant response rating, Johnsongrass [9, 25]
80: Morningglory plant response rating [5, 17] | Plant response rating, Morningglory [5, 18] | Plant response rating, Morningglory [5, 20] | Plant response rating, Cupgrass, Woolly [7, 24] | Plant response rating, Morningglory [8, 25] | Plant response rating, Goosegrass [11, 23]
0: Plant response rating, Rice [1, 14] | Plant response rating, Barnyardgrass [3, 14] | Plant response rating, Barnyardgrass [3, 15] | Plant response rating, Cupgrass, Woolly [7, 26] | Plant response rating, Morningglory [8, 26] | Plant response rating, Morningglory [8, 27] | Plant response rating, Johnsongrass [9, 21] | Plant response rating, Johnsongrass [9, 26] | Plant response rating, Wheat [10, 21] | Plant response rating, Wheat [10, 22] | Plant response rating, Wheat [10, 26] | Wheat plant response rating [10, 28]
65: Plant response rating, Johnsongrass [9, 24]
100: Pigweed plant response rating [6, 17] | Plant response rating, Pigweed [6, 18] | Plant response rating, Pigweed [6, 20] | Plant response rating, Goosegrass [11, 22] | Goosegrass plant response rating [11, 28]
90: Plant response rating, Pigweed [6, 19] | Johnsongrass plant response rating [9, 28] | Plant response rating, Goosegrass [11, 24] | Plant response rating, Goosegrass [11, 25] | Plant response rating, Foxtail, Giant [12, 22] | Foxtail, Giant plant response rating [12, 28]
35: Plant response rating, Barnyardgrass [3, 16]
85: Plant response rating, Flood, Ducksalad [2, 13] | Plant response rating, Ducksalad [2, 16] | Plant response rating, Sedge, Umbrella [4, 16] | Plant response rating, Cupgrass, Woolly [7, 25] | Plant response rating, Foxtail, Giant [12, 23]
40: Plant response rating, Morningglory [5, 19]
20: Plant response rating, Flood, Rice [1, 13] | Plant response rating, Johnsongrass [9, 27]
75: Plant response rating, Ducksalad [2, 15] | Plant response rating, Sedge, Umbrella [4, 14] | Plant response rating, Sedge, Umbrella [4, 15] | Plant response rating, Cupgrass, Woolly [7, 23] | Plant response rating, Goosegrass [11, 21] | Plant response rating, Foxtail, Giant [12, 21] | Plant response rating, Foxtail, Giant [12, 27]
10: Plant response rating, Rice [1, 15] | Plant response rating, Morningglory [8, 21] | Plant response rating, Johnsongrass [9, 23]
55: Plant response rating, Morningglory [8, 22]
